According to patent publication US7217548B2, “N-acetylglucosaminlytransferase and polynucleotide encoding the same” (National Institute of Advanced Industrial Science and …, priority 2000, dated 2007):
“Also recorded” adds a separate entry of the source. Like-named read-outs stand apart in the source and are kept apart here. Peptide text beside a SMILES is read from it. * marks the point of attachment. αMan = OC[C@H]1O[C@H](*)[C@@H](O)[C@@H](O)[C@@H]1O

Key:
[1] = target: T1, OMGnT derived from a newborn rat brain (Rattus norvegicus, UniProt Q5XIN7); assay: Divalent cation requirement for OMGnT activity; format: biochemical; conditions: for effect on OMGnT activity relative to Mn2+: 10 mM for each divalent cation; for Relative activity of OMGnT (%): each additive 10 mM, activity with 10 mM MnCl2 taken as 100%
T1 construct: from tissue; host or cells: newborn rat brain
T1 sequence (Q5XIN7 whole entry): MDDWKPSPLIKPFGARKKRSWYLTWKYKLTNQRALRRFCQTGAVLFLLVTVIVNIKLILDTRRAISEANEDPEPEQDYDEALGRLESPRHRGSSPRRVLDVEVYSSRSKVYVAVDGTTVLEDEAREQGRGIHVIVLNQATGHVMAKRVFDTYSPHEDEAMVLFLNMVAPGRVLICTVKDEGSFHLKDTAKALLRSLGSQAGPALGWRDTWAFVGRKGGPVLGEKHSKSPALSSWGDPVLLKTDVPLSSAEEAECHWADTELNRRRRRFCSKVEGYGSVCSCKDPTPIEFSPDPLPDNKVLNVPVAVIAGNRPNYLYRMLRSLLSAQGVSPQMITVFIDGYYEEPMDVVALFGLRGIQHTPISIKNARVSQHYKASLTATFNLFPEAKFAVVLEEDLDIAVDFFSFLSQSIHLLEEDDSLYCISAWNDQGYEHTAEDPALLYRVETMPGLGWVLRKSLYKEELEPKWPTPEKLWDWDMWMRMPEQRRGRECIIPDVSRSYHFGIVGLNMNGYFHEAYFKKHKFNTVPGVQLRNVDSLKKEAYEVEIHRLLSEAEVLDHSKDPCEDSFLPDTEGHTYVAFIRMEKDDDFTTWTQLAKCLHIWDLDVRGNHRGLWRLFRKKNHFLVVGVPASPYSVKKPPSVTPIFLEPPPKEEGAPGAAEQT
Procedure: *OMGnT activity was determined by adding each of the metal ions (10 mM) to a OMGnT sample. The figures in the Table are expressed in percent, taking the activity when 10 mM MnCl2 is added as 100%.

His-Xpress-sOMGnT(S) = target: T2, His-Xpress-sOMGnT(S) (Homo sapiens, UniProt Q8WZA1, M623V); assay: Substrate specificity and kinetic parameters of solubilized human OMGnT enzyme (S); format: biochemical; conditions: for OMGnT relative activity (%) His-Xpress-sOMGnT(S): as sugar receptor, activity with Man-peptide regarded as 100%
T2 construct: Ig kappa chain secretory signal (N); made in house; host or cells: HEK293T (transient, secreted into serum-free medium)
T2 sequence (Q8WZA1 247-660 M623V): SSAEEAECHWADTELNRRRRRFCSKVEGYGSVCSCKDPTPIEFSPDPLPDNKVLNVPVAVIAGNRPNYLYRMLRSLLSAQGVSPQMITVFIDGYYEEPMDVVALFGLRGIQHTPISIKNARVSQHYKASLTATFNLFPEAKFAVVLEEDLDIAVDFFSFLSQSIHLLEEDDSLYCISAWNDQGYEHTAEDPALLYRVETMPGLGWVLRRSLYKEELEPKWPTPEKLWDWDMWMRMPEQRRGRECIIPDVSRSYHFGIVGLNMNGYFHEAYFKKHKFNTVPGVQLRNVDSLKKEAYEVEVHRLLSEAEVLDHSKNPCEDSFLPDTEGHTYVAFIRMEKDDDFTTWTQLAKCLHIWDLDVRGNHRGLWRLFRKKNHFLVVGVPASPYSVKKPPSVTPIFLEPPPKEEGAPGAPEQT
Procedure: (§1) […] […] The reaction mixture was then filtered with a filter Ultrafree-MC (Millipore) having a pore size of 0.22 μm to remove solids, and analyzed by Wakopak 5C18-200 column (4.6×250 mm, Wako Pure Chemical Industries, Ltd.). The separation was carried out using concentration gradient with Solution A and Solution B at a flow rate of 1.0 ml/min. […] Peptide detection was carried out at 214 nm, and the radioactivity of each fraction was assayed using a liquid scintillation counter.
(§2) The activity of GnT-1 was assayed with a method by Yoshida et al. [Yoshida, S., Suzuki, M., Yamano, S., Takeuchi, M., Ikenaga, H., Kioka, N., Sakai, H., and Komano, T., Glycobiology, (1999), 9, 53–58] as described below. A 20 μl reaction solution was prepared by adding an enzyme source thereto so as to have a final concentration of 100 mM MES (pH 6.0), 20 mM MnCl2, 5 μM Manα1–6(Manα1–3)Manα1–6(Manα1–3)Manβ1–4GlcNAcβ1–4GlcNAc-PA(M5GN2-PA; Takara Shuzo, PA-Sugar Chain 017), 1 mM UDP-GlcNAc, 100 mM GlcNAc, 5 mM AMP, 1% Triton X-100, and 0.2% BSA. The reaction solution was incubated at 37° C. for 1 hour, and the reaction was terminated in boiling water. Thereafter, the reaction solution was analyzed by a reverse phase HPLC (Cosmosil 5C18-AR column) available from Nacalai Tesque.
(§3) When Manα1–6(Manα1–3)Manβ1–4GlcNAcβ1–4GlcNAc-PA (M3GN2-PA; Takara Shuzo, PA-Sugar Chain 016) was used as a sugar receptor, the same method was employed for analysis.

His-Xpress-sOMGnT(L) = target: T3, His-Xpress-sOMGnT(L) (Homo sapiens, UniProt Q8WZA1, M623V); assay: Substrate specificity and kinetic parameters of solubilized human OMGnT enzyme (L); format: biochemical; conditions: for OMGnT relative activity (%) His-Xpress-sOMGnT(L): as sugar receptor, activity with Man-peptide regarded as 100%
T3 construct: 595 amino acids from 66: Ser thereof (66: Ser to 660: Thr), respectively; Ig kappa chain secretory signal (N); made in house; host or cells: HEK293T (transient, secreted into serum-free medium)
T3 sequence (Q8WZA1 66-660 M623V): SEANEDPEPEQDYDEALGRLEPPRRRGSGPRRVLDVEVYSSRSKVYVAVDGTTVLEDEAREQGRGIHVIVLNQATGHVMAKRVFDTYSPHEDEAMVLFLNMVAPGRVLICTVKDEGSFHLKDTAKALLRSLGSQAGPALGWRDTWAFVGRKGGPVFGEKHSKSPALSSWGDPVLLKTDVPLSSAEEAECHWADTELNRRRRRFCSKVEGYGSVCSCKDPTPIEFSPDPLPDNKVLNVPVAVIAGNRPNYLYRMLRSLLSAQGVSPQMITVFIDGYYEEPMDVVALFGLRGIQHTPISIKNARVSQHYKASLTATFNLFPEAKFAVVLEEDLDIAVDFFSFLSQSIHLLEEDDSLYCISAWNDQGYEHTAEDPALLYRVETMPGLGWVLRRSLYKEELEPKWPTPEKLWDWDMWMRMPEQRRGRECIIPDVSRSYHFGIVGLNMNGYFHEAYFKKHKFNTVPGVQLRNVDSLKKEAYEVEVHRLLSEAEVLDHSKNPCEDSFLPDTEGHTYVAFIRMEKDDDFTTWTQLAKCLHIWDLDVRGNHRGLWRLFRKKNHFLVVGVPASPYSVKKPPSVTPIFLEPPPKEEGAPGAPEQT
Procedure: as §1, §2, §3

OMGnT [2] = assay: Substrate specificity of OMGnT expressed in animal cells (summary of properties); format: biochemical, human; conditions: reactivity toward mannosylnanopeptide regarded as 100%
Text: The biochemical properties of the OMGnT: an enzyme protein massively expressed in animal cells as described above are as follows.

OMGnT [3] = assay: OMGnT activity in serum-free medium of HEK293T cells expressing solubilized enzymes; format: biochemical, human; conditions: serum-free medium of HEK293T transfectants
Procedure: (§4) The enzyme solution was added to 140 mM MES [2-(N-morpholino) ethanesulfonic acid] buffer (pH 7.0) containing 0.4 mM Man-peptide, 0.2 mM UDP-[^3H]GlcNAc (up to 228,000 dpm/nmol), 10 mM MnCl2, 5 mM AMP, 200 mM GlcNAc, 2%(w/v) Triton X-100, 10% glycerol, 2 μg/ml antipain, 2 μg/ml chymostatin, 3 μg/ml pepstatin A, 2 μg/ml leupeptin, 1 mM benzamidine-HCl, and 1 mM PMSF (phenylmethylsulfonyl fluoride) to prepare 50 μl of reaction solution. After the reaction at 37° C. for 3 hours, the reaction was terminated by 3 minutes of boiling. The reaction mixture was then filtered with a filter Ultrafree-MC (Millipore) having a pore size of 0.22 μm to remove solids, and analyzed by Wakopak 5C18-200 column (4.6×250 mm, Wako Pure Chemical Industries, Ltd.). The separation was carried out using concentration gradient with Solution A and Solution B at a flow rate of 1.0 ml/min. […] Peptide detection was carried out at 214 nm, and the radioactivity of each fraction was assayed using a liquid scintillation counter.
Each secretory expression plasmid was transiently expressed in a HEK293T cell derived from human embryonic kidney. Usually, HEK293T cells were cultured in D-MEM (Gibco, #11995-065) containing 10% Fetal Calf Serum (Hyclone), 10 mM MEM Non-Essential Amino Acids solution (Gibco), 2 mM Glutamine (Gibco), and 100 units/ml Penicillin/100 μg/ml Streptomycin (Gibco). […]

GnT-I = target: T4, GnT-I (Homo sapiens, UniProt P26572); assay: GnT-I activity assay of solubilized enzymes; format: biochemical; conditions: method of Reference Example 2
T4 construct: Ig kappa chain secretory signal (N); made in house; host or cells: HEK293T (transient, secreted into serum-free medium)
T4 sequence (P26572 39-445 limits assumed): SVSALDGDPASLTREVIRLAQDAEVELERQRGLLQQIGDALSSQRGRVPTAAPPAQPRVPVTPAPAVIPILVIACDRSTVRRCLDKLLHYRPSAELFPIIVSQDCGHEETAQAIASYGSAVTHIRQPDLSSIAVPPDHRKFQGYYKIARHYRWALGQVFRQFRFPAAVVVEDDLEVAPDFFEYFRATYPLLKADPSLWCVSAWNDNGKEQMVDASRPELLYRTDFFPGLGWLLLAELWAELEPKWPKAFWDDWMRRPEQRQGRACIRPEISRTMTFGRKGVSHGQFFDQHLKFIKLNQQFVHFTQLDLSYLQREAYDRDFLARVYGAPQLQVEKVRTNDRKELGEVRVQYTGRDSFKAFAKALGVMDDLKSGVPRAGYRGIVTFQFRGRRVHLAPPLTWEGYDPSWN
Procedure: as §2, §3

OMGnT [4] = target: T5, OMGnT (Homo sapiens, UniProt Q8WZA1, M623V); assay: OMGnT activity of microsomal fractions of HEK293T cells transfected with full-length human OMGnT plasmid; format: biochemical
T5 construct: a cDNA of approximately 2.0 kb encoding the full length of human OMGnT is inserted; expressed in transfected cells; host or cells: HEK293T
T5 sequence (Q8WZA1 whole entry M623V): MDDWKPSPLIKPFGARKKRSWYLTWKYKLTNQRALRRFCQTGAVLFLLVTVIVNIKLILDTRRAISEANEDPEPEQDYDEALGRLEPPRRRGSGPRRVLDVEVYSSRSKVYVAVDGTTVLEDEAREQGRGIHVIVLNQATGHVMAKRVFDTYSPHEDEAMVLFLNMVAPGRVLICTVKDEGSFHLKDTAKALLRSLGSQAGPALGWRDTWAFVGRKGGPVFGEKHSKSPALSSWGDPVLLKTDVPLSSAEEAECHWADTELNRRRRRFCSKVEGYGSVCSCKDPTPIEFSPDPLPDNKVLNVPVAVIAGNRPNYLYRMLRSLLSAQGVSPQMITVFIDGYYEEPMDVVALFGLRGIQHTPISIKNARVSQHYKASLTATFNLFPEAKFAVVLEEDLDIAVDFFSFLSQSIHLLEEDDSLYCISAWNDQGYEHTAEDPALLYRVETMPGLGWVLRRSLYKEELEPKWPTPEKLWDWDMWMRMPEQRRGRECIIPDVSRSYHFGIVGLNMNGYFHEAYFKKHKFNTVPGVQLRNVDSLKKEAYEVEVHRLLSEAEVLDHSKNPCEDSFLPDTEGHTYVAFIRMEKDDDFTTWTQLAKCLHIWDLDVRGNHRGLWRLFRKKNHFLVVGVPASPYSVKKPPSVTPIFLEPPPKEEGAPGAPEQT
Procedure: as §4
The mixture was centrifuged for 10 minutes at 900×g, and then the obtained supernatant was centrifuged for 1 hour at 100,000×g, thereby obtaining a microsomal fraction as a precipitate. In the case of preparing solubilized enzyme, the precipitate was suspended in 140 mM MES buffer (pH 7.0) (referred to as solubilization buffer) containing 5 mM AMP, 200 mM GlcNAc, 2%(w/v) Triton X-100, 10% glycerol, 2 μg/ml antipain, 2 μg/ml chymostatin, 3 μg/ml pepstatin A, 2 μg/ml leupeptin, 1 mM benzamidine-HCl, and 1 mM PMSF(phenylmethylsulfonyl fluoride) and sonicated. Thereafter, the resultant was centrifuged for 1 hour at 100,000×g and the obtained supernatant was used.
The expression plasmid was transiently expressed in an HEK293T cell in the same manner as described in Example 3. 15 μg of plasmid was transfected to 50–70% confluent cells in a 10 cm petri dish. After overnight cultivation, the medium was changed. After a further 48-hour cultivation, cells were collected.
A microsomal fraction was prepared from cells by the method described in Example 2, and OMGnT activity of a soluble fraction and an insoluble fraction were assayed by the method described in Example 1.

## [Ca+2].[Cl-].[Cl-] [CaCl2]
[1]
  effect on OMGnT activity (in words): weak effect
  effect on OMGnT activity relative to Mn2+: approximately 15%
  Relative activity of OMGnT (%): 15%

## CC(=O)N[C@@H](C)C(=O)N[C@@H](C)C(=O)N1CCC[C@H]1C(=O)N[C@H](C(=O)N1CCC[C@H]1C(=O)N[C@H](C(=O)N[C@@H](C)C(=O)N[C@@H](C)C(=O)N1CCC[C@H]1C(N)=O)C(C)C)[C@@H](C)O[C@H]1O[C@H](CO)[C@@H](O)[C@H](O)[C@@H]1O [Man-peptide, Ac-Ala-Ala-Pro-Thr(Man)-Pro-Val-Ala-Ala-Pro-NH2] (Ac-AAPT(αMan)PVAAP-NH2)
His-Xpress-sOMGnT(S)
  OMGnT relative activity (%) His-Xpress-sOMGnT(S): 100%
His-Xpress-sOMGnT(L)
  OMGnT relative activity (%) His-Xpress-sOMGnT(L): 100%

## [Cl-].[Cl-].[Mg+2] [MgCl2]
[1]
  effect on OMGnT activity relative to Mn2+: approximately 40%
  Relative activity of OMGnT (%): 39%

## [Cl][Mn][Cl] [MnCl2]
[1]
  concentration range at which the effect on OMGnT activity is the greatest: 1 to 10 mM
  Relative activity of OMGnT (%): 100%
[1]; listed as Mn^2+
  effect on OMGnT activity (in words): greatest effect; also recorded: maximum effect

## CC(=O)N[C@H]1[C@@H](OP(=O)(O)OP(=O)(O)OC[C@H]2O[C@@H](n3ccc(=O)[nH]c3=O)[C@H](O)[C@@H]2O)O[C@H](CO)[C@@H](O)[C@@H]1O [UDP-GlcNAc]
His-Xpress-sOMGnT(S); 125 mM MOPS pH7.3, 0.4 mM Man-peptide, 7.5 mM MnCl2, 37° C., 2 hours, read-out: apparent Km value of His-Xpress-sOMGnT(S) toward UDP-GlcNAc
  Km: 570 µM
His-Xpress-sOMGnT(L); 125 mM MOPS pH7.3, 0.4 mM Man-peptide, 7.5 mM MnCl2, 37° C., 2 hours, read-out: apparent Km value of His-Xpress-sOMGnT(L) toward UDP-GlcNAc
  Km: 730 µM

## O=[N+]([O-])c1ccc(O[C@H]2O[C@H](CO)[C@@H](O)[C@H](O)[C@@H]2O)cc1 [p-nitrophenyl Man, p-nitrophenyl mannose]
His-Xpress-sOMGnT(S)
  OMGnT relative activity (%) His-Xpress-sOMGnT(S): 0%
His-Xpress-sOMGnT(L)
  OMGnT relative activity (%) His-Xpress-sOMGnT(L): 0%
OMGnT [2]
  reactivity of the enzyme toward sugar receptor: 0%

## His-Xpress-sOMGnT(L): solubilized human OMGnT, 595 amino acids 66:Ser to 660:Thr, secreted from HEK293T; plasmid named in Table 3
OMGnT [3]
  OMGnT activity: 15 pmol/hr/mg protein
  OMGnT activity (in words): significantly high OMGnT activity
GnT-I
  GnT-I activity (in words): did not exhibit activity at all

## Manα1–6(Manα1–3)Manα1–6(Manα1–3)Manβ1–4GlcNAcβ1–4GlcNAc-PA [M5GN2-PA]
His-Xpress-sOMGnT(S)
  OMGnT relative activity (%) His-Xpress-sOMGnT(S): 0%
His-Xpress-sOMGnT(L)
  OMGnT relative activity (%) His-Xpress-sOMGnT(L): 0%

## Manα1–6(Manα1–3)Manβ1–4GlcNAcβ1–4GlcNAc-PA [M3GN2-PA]
His-Xpress-sOMGnT(S)
  OMGnT relative activity (%) His-Xpress-sOMGnT(S): 0%
His-Xpress-sOMGnT(L)
  OMGnT relative activity (%) His-Xpress-sOMGnT(L): 0%

## OMGnT/pcDNA3.1zeo: expression plasmid for full-length human OMGnT (SEQ ID NO: 2), expressed in HEK293T; microsomal fractions assayed
OMGnT [4]; insoluble fraction
  OMGnT activity, times higher than control (no plasmid), insoluble fraction: ~140 times
OMGnT [4]; insoluble fraction of microsomal fraction, HEK293T
  OMGnT activity, Insoluble fraction: 243.9 pmol/hr/mg protein
OMGnT [4]; soluble fraction
  OMGnT activity, times higher than control (no plasmid), soluble fraction: about 120 times
OMGnT [4]; soluble fraction of microsomal fraction, HEK293T
  OMGnT activity, Soluble fraction: 182.7 pmol/hr/mg protein
OMGnT [4]; soluble plus insoluble fraction
  OMGnT activity, Total: 426.6 pmol/hr/mg protein
